Tests used:
S. frugiperda = assay: Leaf sample bioassay with fall armyworm larvae (Example 3); format: in vivo; settings: for Insect Mortality / Leaf Feeding Rating: 48 hours; for Insect Mortality: Jul. 14, 2011; for Leaf Feeding Rating: scale 0 = undamaged to 3 = severe feeding; for additional increase in mortality in the presence of Axmi205: versus clothianidin alone; for increase in mortality above the negative control: Axmi205-negative plants
Protocol: (§1) Zea Mays (Corn) seed from events traited with Axmi205 were selected. […] The population of the seed used is not entirely transgenic; plants without the trait in their DNA were used for control comparisons.
(§2) Seed was treated with seed applied pesticides using a hege bowl treater. Applications were made of: Clothianidin; available as Poncho though through Bayer CropScience. Rates were applied as mg ai/seed. The evaluation had non-target variables controlled.
(§3) During testing, samples of each plant were submitted for PCR to determine if an individual plant carried the Axmi205 gene (positive or negative). Plants for which no PCR results could be obtained were not included in the results.
(§4) Seed were planted into germination mix at a rate of one seed per root-trainer. Testing was conducted as a randomized complete block with 30 replications. Plants were maintained in a greenhouse and periodically assessed for emergence. After several weeks of growth, leaf samples were taken from plants and used to conduct insect bioassays on species of Lepidoptera. A leaf sample was placed into a Petri-dish and infested with 10 larvae of fall armyworm; Spodoptera frugiperda. After 48 hours dishes were evaluated for insect mortality and leaf feeding damage. When assessing leaf feeding, damage was recorded as a rating between 0-3, where zero was undamaged and three was severely damaged. After approximately three weeks from planting, plants were infested with Diabrotica virgifera (western corn rootworm). Western corn rootworm eggs were infested into the root system of plants. At approximately 15 days post infestation plants were extracted and insect feeding damage was evaluated following Iowa State University's Node-Injury Scale at www.ent.iastate.edu/pest/rootworm/nodeinjury/nodeinjury.html.

D. virgifera = assay: Western corn rootworm root feeding damage, Node-Injury Scale (Example 3); format: in vivo, Diabrotica virgifera; settings: for Root Damage Rating: 0 = undamaged, 3 = severely damaged
Protocol: as §1, §2, §3, §4

Glycine max (soybean) = assay: Soybean shoot height and plant mass after metalaxyl seed treatment (Example 2); format: in vivo
Protocol: (§5) Glycine max (soybean) seed from an event traited with Axmi031 was selected. […] Plants that screened negative for the presence of the transgene were used for control comparisons.
(§6) Seed was treated with seed applied pesticides using a hege bowl treater. Metalaxyl (MTL), available as Allegiance through Bayer CropScience, was applied at rates of 2 and 4 g ai/100 kg seed. Trilex 2000 was also included as a commercial standard package.
(§7) During testing, samples of each plant were submitted for PCR to determine if an individual plant carried the Axmi031 gene (Positive or Negative). Plants for which no PCR results could be obtained were not included in results. There were a disproportionate number of positive plants. As a result, the number of negative plants available in some comparisons was very small.
(§8) Testing was conducted as a randomized complete block with 30 replications. Seed were planted into sand at a rate of one seed per pot. Plants were stored at 10° C. for eight days and then moved to 25° C. for the remainder of the test. Plants were periodically assessed for emergence. After several weeks of growth plants were evaluated for height. At approximately 40 days after planting, 5 random plants for each treatment comparison were selected for extraction. If fewer than 5 plants were available, evaluations were still conducted as long as a minimum of 3 plants could be assessed. Exacted plants were measured by hand to determine root length and mass and evaluated using WinRHIZO image analysis system (available through Regent instruments at www.regent.qc.ca/products/rhizo/WinRHIZO.html.

[1] = test system: Glycine max (soybean) roots; assay: WinRHIZO root image analysis of soybean (Example 2); format: in vivo
Protocol: as §5, §6, §7, §8

SCN (inbred colony OP50) = assay: SCN cyst counts on soybean pot plants, seed treated with fluopyram (Example 1); format: in vivo, soybean cyst nematodes; settings: base (color/coating) treatment only, two months after planting
Protocol: Two tests were planted with Jack (an SCN resistant soybean variety with PI 88788 resistance) and two genetically modified Jack varieties (AXN2 and AXMI031) known to produce a nematicidal protein. The seed were treated with a color/coating base or the same base plus one of two different rates of fluopyram (experiment 1 used 0.075 mg fluopyram/seed and experiment 2 used 0.15 mg fluopyram/seed). The SCN used to inoculate both tests were collected from an inbred colony (OP50) with the ability to overcome PI 88788 resistance.
Tests were conducted as non-randomized blocks with a minimum of 10 replicates. Seed were planted in individual 4″ clay pots with coarse sand and inoculated with approximately 20,000 OP50 juveniles in ten equal inoculations beginning at planting and again approximately every third day. Plants were maintained in a germination chamber. Blocks were rotated approximately every third day to minimize potential influence of environmental variance. Two months after planting, plants were harvested and cysts were collected and counted to evaluate the efficacy of the nematicide and traits, both individually and in combination with each other.

SCN (HG2.5.7) = assay: SCN cyst counts on Axmi031 soybean treated with Bacillus firmus (Example 4, FIG. 2); format: in vivo, soybean cyst nematodes; settings: Axmi031 expression
Text: Soybeans (6-10 seeds each) in this study included: Control SB171 (transfected control with non gene of interest); SB 171 treated with Bacillus firmus CNCM I-1582 spore control plant; Axmi031 transgenic plant (which also contains non gene of interest); Axmi031 transgenic plant (which also contains non gene of interest) treated with Bacillus firmus CNCM I-1582 spore.
Soybeans (6-10 seeds/plant and treatment) were planted into 4″ clay pots in sand infested with approximately 37,000 SCN eggs (HG2.5.7) at time of planting. Soybean plants were reinfested with 20,000 SCN eggs (HG2.5.7) at approximately 4 weeks post planting. Plants were grown 57 days post reinfestation date. Cysts were harvested from each pot and counted. PCR and Western analysis were done on each AXMI031 plant. Negative segregants were removed from analysis. Data shown in FIG. 2 represents six plants for SB171 each treatment and all PCR/Western positive Axmi031 plants.

[2] = metalaxyl 2 g ai added to Axmi031
[3] = metalaxyl 4 g ai added to Axmi031

CN/C(=N\[N+](=O)[O-])NCc1cnc(Cl)s1 [clothianidin]
Insect Mortality (S. frugiperda; CTD 0.125 mg ai/seed): 8% | Leaf Feeding Rating (S. frugiperda; CTD 0.125 mg ai/seed): 3.00 | Insect Mortality (S. frugiperda; CTD 0.25 mg ai/seed): 12% | Leaf Feeding Rating (S. frugiperda; CTD 0.25 mg ai/seed): 2.77 | Insect Mortality (S. frugiperda; CTD 0.5 mg ai/seed): 11% | Leaf Feeding Rating (S. frugiperda; CTD 0.5 mg ai/seed): 3.00 | additional increase in mortality in the presence of Axmi205 (S. frugiperda; clothianidin 0.125 mg ai/seed): 88% | additional increase in mortality in the presence of Axmi205 (S. frugiperda; clothianidin 0.5 mg ai/seed): 54% | increase in mortality above the negative control (S. frugiperda; highest rate of clothianidin (0.5 mg ai/seed)): 57% | increase in mortality above the negative control (S. frugiperda; lowest rate of clothianidin (0.125 mg ai/seed)): 14% | increase in mortality above the negative control (S. frugiperda; middle rate of clothianidin (0.25 mg ai/seed)): 71% | Root Damage Rating (D. virgifera; CTD 0.125 mg ai/seed): 0.56 | Root Damage Rating (D. virgifera; CTD 0.25 mg ai/seed): 0.32 | Root Damage Rating (D. virgifera; CTD 0.5 mg ai/seed): 0.04 | reduction of root damage over the negative control (D. virgifera; highest rate of clothianidin tested (0.5 mg ai/seed)): 96% | reduction of root damage over the negative control (D. virgifera; lowest rate of clothianidin tested (0.125 mg ai/seed)): 67%

COCC(=O)N(c1c(C)cccc1C)C(C)C(=O)OC (stereo not drawn) [metalaxyl]
plant shoot height, trend with rate (Glycine max (soybean); metalaxyl 2 and 4 g ai/100 kg seed): increased with increasing rates | additional increase in plant total mass (Glycine max (soybean); metalaxyl 2 g ai on Axmi031 plants): 5% | additional shoot height (Glycine max (soybean); metalaxyl 2 g ai/100 kg seed on Axmi031 plants): 5% | increase in above ground plant mass compared to Axmi031 alone (Glycine max (soybean); metalaxyl 4 g ai on Axmi031 plants): 11% | additional shoot height (Glycine max (soybean); metalaxyl 4 g ai/100 kg seed on Axmi031 plants): 8% | increase in root lengths [1, 2]: 60% | increase in root surface area [1, 2]: 42% | increase in root volume [1, 2]: 27% | increase in root lengths [1, 3]: 68% | increase in root surface area [1, 3]: 37% | increase in root volume [1, 3]: 11% | root tips, forks, and crossings ([1]; metalaxyl added to Axmi031, trend with rate): increased as metalaxyl rate increased

B1: Axmi031: nematicidal protein trait expressed in genetically modified soybean (gene axmi031, Table 1) (protein)
chain: MDCNLQSQQNIPYNVLAIPVSNVNSLTDTVGDLKKAWEEFQKTGSFSLTALQQGFSASQGGTFNYLTLLQSGISLAGSFVPGGTFVAPIINMVIGWLWPHKNKNADTENLINLIDSEIQKQLNKALLDADRNEWSSYLESIFDSSNNLNGAIVDAQWSGTVNTTNRTLRNPTESDYTNVVTNFIAADGDIANNENHIMNGNFDVAAAPYFVIGATARFAAMQSYIKFCNAWIDKVGLSDAQLTTQKANLDRTKQNMRNAILNYTQQVMKVFKDSKNMPTIGTNKFSVDTYNVYIKGMTLNVLDIVAIWPSLYPDDYTSQTALEQTRVTFSNMVGQEEGTDGSLRIYNTFDSFSYQHSPIPNNNVNLISYYNDELQNLELGVYTPPKKGSGYSYPYGFVLNYANSKYKYGDSNDPESLGGLSTLSAPIQQVNAATQNSKYLDGEILNGIGASLPGYCTTGCSPTEPPFSCTSTANGYKASCNPSDTNQKINALYPFTQANVKGNTGKLGVLASLVSYDLNPKNVFGELDSDTNNVILKGIPAEKGYFPNNARPTVVKEWINGASAVPLDSGNTLFMTATNLTATQYRIRIRYANPNSNTQIGVRITQNGSLISSSNLTLYSTTDMNNTLPLNVYVIGENGNYTLQDLYNTTNVLSTGDITLQITGGDQKIFIDRIEFVPTMPVPGNTNNNNGNNNGNNNPPHHVCAIAGTQQSCSGPPKFEQVSDLEKITTQVYMLFKS
modifications: AXMI-031(A-D)
percent reduction in average number of cysts compared to Jack (SCN (inbred colony OP50); first experiment): 92% | percent reduction in average number of cysts compared to Jack (SCN (inbred colony OP50); second experiment): 88% | shoot length versus untreated negative control (UTC) (Glycine max (soybean); 28 days after planting (DAP), Axmi031 without metalaxyl): 14% | increase in plant total mass (Glycine max (soybean); presence of Axmi031, no metalaxyl): 13% | WinRHIZO root values versus negative control ([1]; Axmi031 as an individual component): comparable to, or slightly below, the negative control | SCN cyst counts in transgenic soybean plants (SCN (HG2.5.7)): correlates with reduction in SCN cysts counts

B2: Axn2: nematicidal protein trait expressed in genetically modified Jack soybean (gene axn2, Table 1) (protein, listed as Bacillus thuringiensis)
chain: MRIRRNQSTLSHNERLAFTNAVLELKRRPSRLPMSLGSTSRYDDYVYWHLQSMENQTSTTPGWAHRGPAFLPWHRYYLNQFEEDLQRIDHTVTLPYWDWTVDNSTDSSVPGSPWTDDFMGGDGDPTQEYTVTTGPFTGDNWKLTLFDHHENEPHNARLRRQLGTTLNASGNTISINLPTDSEVQNCLLETPYYVSPWRAGQDVNQPALNPTKPSFCNRLEGWYGAGSIHNKVHVWVAGATEGSMIWMSSPNDPVFFLHHANIDRLWVQWQANNPNEGYHPTGNGNEVGPTGHNLNDSMNPWGRKVTPNNVLNHYSLGYTYDTDSTPLSEIFMHTFNLKIRKEKQIKDGHFGLSQEDLDKL
percent reduction in average number of cysts compared to Jack (SCN (inbred colony OP50); first experiment): 20% | percent reduction in average number of cysts compared to Jack (SCN (inbred colony OP50); second experiment): 43%

From patent US20140056866A1, “USE OF BIOLOGICAL OR CHEMICAL CONTROL AGENTS FOR CONTROLLING INSECTS AND NEMATODES IN RESISTANT CROPS” (priority 2010, published 2014)
